Assay results as given in paper PMC8872768, “Discovery of ultrafast myosin, its amino acid sequence, and structural features” (Proceedings of the National Academy of Sciences of the …, 2022).

Tests used:
CbXI-3 MD = target: T1, CbXI-3 MD (Chara braunii, UniProt A0A388L5N7); test: actin-activated Mg2+-ATPase, phosphate release; assay type: biochemical; conditions: 2 mM ATP, F-actin 0.125-4 mg/mL, 25 mM KCl, 4 mM MgCl2, pH 7.4, 25 C
T1 construct: gene CBR_g24025; motor domain only, no IQ motifs; baculovirus / insect cells

CbXI-2 MD = target: T2, CbXI-2 MD (Chara braunii, UniProt A0A388M2Q8); test: actin-activated Mg2+-ATPase, phosphate release; assay type: biochemical; conditions: 2 mM ATP, F-actin 0.125-4 mg/mL, 25 mM KCl, 4 mM MgCl2, pH 7.4, 25 C
T2 construct: gene CBR_g48390; motor domain only, no IQ motifs; baculovirus / insect cells
T2 sequence (A0A388M2Q8 1-744 limits assumed): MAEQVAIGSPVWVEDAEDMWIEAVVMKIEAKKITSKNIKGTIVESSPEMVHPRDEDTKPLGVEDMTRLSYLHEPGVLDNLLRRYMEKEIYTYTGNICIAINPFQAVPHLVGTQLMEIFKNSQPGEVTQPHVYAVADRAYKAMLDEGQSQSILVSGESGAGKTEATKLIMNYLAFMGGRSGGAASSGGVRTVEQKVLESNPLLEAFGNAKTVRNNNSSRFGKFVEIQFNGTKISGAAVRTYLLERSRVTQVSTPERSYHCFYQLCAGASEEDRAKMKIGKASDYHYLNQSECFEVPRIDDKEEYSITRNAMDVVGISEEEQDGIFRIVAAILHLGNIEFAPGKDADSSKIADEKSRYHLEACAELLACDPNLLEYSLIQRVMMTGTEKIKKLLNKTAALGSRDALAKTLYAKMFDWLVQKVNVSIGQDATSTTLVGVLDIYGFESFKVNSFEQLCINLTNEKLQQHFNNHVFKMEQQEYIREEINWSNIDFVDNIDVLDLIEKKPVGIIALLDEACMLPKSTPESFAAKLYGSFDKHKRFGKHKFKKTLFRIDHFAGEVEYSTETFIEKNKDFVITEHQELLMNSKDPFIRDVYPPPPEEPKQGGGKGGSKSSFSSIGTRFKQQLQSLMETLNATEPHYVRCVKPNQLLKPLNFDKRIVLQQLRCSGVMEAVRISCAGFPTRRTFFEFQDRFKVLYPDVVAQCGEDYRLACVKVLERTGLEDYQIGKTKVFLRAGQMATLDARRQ

T1 sequence (A0A388L5N7 1-740 limits assumed): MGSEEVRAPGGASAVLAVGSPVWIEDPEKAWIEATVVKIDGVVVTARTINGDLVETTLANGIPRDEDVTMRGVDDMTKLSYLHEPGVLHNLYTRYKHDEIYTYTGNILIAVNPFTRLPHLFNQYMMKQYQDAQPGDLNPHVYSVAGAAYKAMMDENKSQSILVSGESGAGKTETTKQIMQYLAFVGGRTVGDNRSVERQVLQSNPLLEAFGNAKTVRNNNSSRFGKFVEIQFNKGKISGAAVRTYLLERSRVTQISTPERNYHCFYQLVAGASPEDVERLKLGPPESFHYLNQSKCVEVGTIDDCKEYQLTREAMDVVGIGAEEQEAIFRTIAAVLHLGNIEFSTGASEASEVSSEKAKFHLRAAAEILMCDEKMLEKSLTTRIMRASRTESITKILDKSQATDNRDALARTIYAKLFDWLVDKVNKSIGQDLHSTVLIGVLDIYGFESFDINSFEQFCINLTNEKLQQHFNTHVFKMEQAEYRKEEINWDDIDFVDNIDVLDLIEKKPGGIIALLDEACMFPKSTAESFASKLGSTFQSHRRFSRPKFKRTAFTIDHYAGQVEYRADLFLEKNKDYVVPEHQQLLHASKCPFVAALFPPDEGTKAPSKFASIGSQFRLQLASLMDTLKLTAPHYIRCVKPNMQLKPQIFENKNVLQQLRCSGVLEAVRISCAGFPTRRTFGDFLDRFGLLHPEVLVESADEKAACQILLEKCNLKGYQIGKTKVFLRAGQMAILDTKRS

In the case of Nc1ncnc2c1ncn2[C@@H]1O[C@H](COP(=O)(O)OP(=O)(O)OP(=O)(O)O)[C@@H](O)[C@H]1O [ATP], the “actin-activated Mg2+-ATPase, phosphate release” value (CbXI-3 MD) is reported as “The ATPase activities of CbXI-1, CbXI-2, CbXI-3, and CbXI-4 MDs were plotted” and the “actin-activated Mg2+-ATPase, phosphate release” value (CbXI-2 MD) is reported as “The ATPase activities of CbXI-1, CbXI-2, CbXI-3, and CbXI-4 MDs were plotted”.
